Each block holds one sequence with its values, some of them ahead of it.
Legend:
[1] = tested on: PBMC-derived CD8+ T cells from T1D patients; assay: Binding of HLA-A*02:01 barcoded pMHC tetramer library to PBMC-derived CD8+ T cells of T1D patients and healthy donors; parameters: species or system human; details: for Normalized T1D prevalence: average number of times the epitope in the pMHC tetramer library was bound by cognate TCR in the T1D cohort, 8 T1D patients, 1 nM per tetramer; for % Presence in T1D samples: percentage of T1D samples in which the epitope response was observed
Source text: This example describes assessment of peptide binding to peripheral T cells from 8 short clinical duration T1D patients and 21 healthy donors who are HLA-matched without a history of diabetes, thereby to identify T1D-associated, HLA-A*02:01-restricted T cell epitopes.
Briefly, in the high-throughput screen described in Example 1, a library of HLA-A*02:01 oligo-barcoded pMHC tetramers was created as described in Francis et al., (2022) Sci Immunol 21:eabk3070. This tetramer library was composed of individual pMHCs representing hundreds of different epitopes identified in Example 1. CD8+ T cells were derived from frozen peripheral blood mononuclear cells (PBMCs) of human donors. CD8+ T cells were enriched via magnetic-activated cell separation from thawed PBMCs via commercially available negative enrichment kits (Miltenyi). Resulting enriched CD8+ T cells were counted and a standard input of 1 million CD8+ T cells per subject were then stained with tetramer libraries at final concentration of 1 nM per pMHC tetramer, in the presence of 2 mg/mL salmon sperm DNA in PBS with 0.5% BSA solution for 20 min. Stained cells were barcoded by commercially available anti-TCR antibody-derived tags (ADT, clone IP26, Biolegend). Tetramer bound cells were then labeled with phycoerythrin (PE) conjugated anti-DKDDDDK-Flag antibody (Biolegend) followed by dead cell discrimination using 7-amino-actinomycin D (7-AAD). Live, tetramer positive cells were sorted using a Sony MA900 Sorter. Following sorting, tetramer positive cells were single-cell sequenced using commercially available systems and protocols from 10× Genomics. Post-sequencing cells were demultiplexed and passed through standard quality control workflows (removal of duplicates, damaged cells, empty droplets, etc.) as described in Francis et al., (2022) Sci Immunol 21:eabk3070. Demultiplexed, tetramer positive cells were scored for pMHC-TCR interactions as described in Francis et al., (2022) Sci Immunol 21:eabk3070. Non-control pMHC-TCR putative binders passing quality control filters and scoring were used for analysis. The resulting pMHC-TCR matrix reactivity map was analyzed by abundance for “normalized T1D prevalence”, “relative enrichment”, and “% presence in T1D samples.” Normalized prevalence was defined as the average number of times an epitope in the pMHC tetramer library was bound by cognate TCR in the T1D cohort. […] Finally, for an epitope to be considered of value, it must pass prevalence and enrichment thresholds and have cognate T cells present in at least 75 percent of T1D subjects.

recombinant TCRs (rTCRs) = assay: Activation (CD69+) of J76-CD8-NFAT-GFP cells expressing recombinant TCRs by peptide-loaded HLA-A*02:01+ T2 cells; type: cell-based, human; details: 50 μM peptide, T2 cells 1:1, 16 hours
Source text: This example describes functional validation of the T cell epitopes described in Examples 2 and 3, and their cognate TCRs, by assessing the ability of certain T cell epitopes, when presented by APCs that express HLA-A*02:01, to activate an immortalized T cell line expressing recombinant TCRs sequenced from the T cells of T1D patients and healthy donors. […] The relevance of certain identified T1D associated epitopes was evidenced by binding and activation of cognate TCRs in primary T cells or recombinant T cell lines.
(§1) Briefly, native paired alpha and beta TCR sequences identified from human tissues, such as PBMC or islet-derived CD8 T cells, were cloned into the pLVX-EFla lentiviral backbone (Takara) as a bicistronic TCRB-T2A-TCRa vector. TCRa/B/Jurkat J76 cells, which were engineered to express CD8 and a nuclear factor of activated T cells (NFAT)-green fluorescent protein (GFP) reporter (referred to as J76-CD8-NFAT-GFP), were transduced with lentiviral vectors produced from HEK 293T cells. To assess functional activity of the recombinant TCRs (rTCRs), J76-CD8-NFAT-GFP expressing recombinant TCRs were incubated at a 1:1 ratio with the HLA-A*02:01^+ T2(174×CEM.T2) (ATCC CRL-1991) lymphoblastic cell line, with a final concentration of 50 μM of cognate peptide (Vivitide, >95% pure) or 0.5% dimethylsulfoxide (DMSO, vehicle). Cell mixtures were incubated at 37° C., 5% CO2 for 16 hours. Activation of the T cells was assessed by flow cytometry using anti-CD3-PE-Cy7 (Clone UCHT1) and anti-CD69-APC (Clone FN50) antibodies, and analyzed using the Satorius iQue Screener Plus and FlowJo v10. Activation of rTCR-expressing cell lines was determined by comparing the mean percentage of CD69^+ cells out of CD3^+ cells, in cell mixtures with cognate peptide-loaded T2 cells, with the mean percentage in cell mixtures with no peptide (DMSO control).

[2] = tested on: pancreatic islet infiltrating T cells; assay: Binding of pMHC library to polyclonally expanded islet-derived T cell lines from T1D organ donors; parameters: species or system human; details: single high abundance TCR
Source text: This example describes assessment of peptides that bind to T cell lines derived from living pancreatic islets of recently deceased pancreatic organ donors with T1D, thereby to identify T1D-associated, HLA-A*02:01-restricted T cell epitopes directly associated with islet infiltrating T cells. This assay, using specialized post-mortem processing of difficult-to-obtain pancreas biopsy, further confirmed the association of selected epitopes with T1D, given that disease-associated T cell epitopes generally result in infiltration of T cells that can cause inflammation and subsequent beta cell cytotoxicity in the pancreas.
Briefly, pancreatic slices were sourced from individuals with suspected or confirmed Type I diabetes diagnosis at the time of death by the Network of Pancreatic Organ Donors. Within in 72 hours of death, pancreatic islets were macrodissected from the slices under sterile conditions. These islets were cultured with a cocktail of cytokines and immune stimulating factors that allow T cell expansion independent of cognate TCR-pMHC interaction, using the polyclonal T cell expansion method described in Babon et al., (2016) Nat Med 22:1482-1487. The resulting T cell lines were then screened against pMHC libraries described in Example 2.
This epitope bound to a single, high abundance TCR derived from an individual that was diagnosed with Type I diabetes 4 months prior to death. […]

islet-derived rTCR = assay: Peptide dose-response of islet-derived rTCR expressed in Jurkat T cells; type: cell-based, human; details: Jurkat T cells expressing islet-derived rTCR, pulsed with 0.001 to 100 μM peptide; approximate affinity of pMHC-rTCR interaction; read-out: EC50 (half maximal effective concentration)
Experimental: FIG. 1 depicts a dose-response for the islet-derived rTCR described in Table 5 when pulsed with a range of cognate peptide from 0.001 to 100 μM.
This epitope bound to a single, high abundance TCR derived from an individual that was diagnosed with Type I diabetes 4 months prior to death. […] The EC50 value represents an approximate affinity for the pMHC-rTCR[…] interaction.
as §1, with “To assess functional activity of the recombinant TCRs (rTCRs), J76-CD8-NFAT-GFP expressing recombinant TCRs were incubated at a 1:1 ratio with the HLA-A*02:01^+ T2(174×CEM.T2) (ATCC CRL-1991) lymphoblastic cell line, with a final concentration of 50 μM of cognate peptide (Vivitide, >95% pure) or 0.5% dimethylsulfoxide (DMSO, vehicle). Cell mixtures were incubated at 37° C., 5% CO2 for 16 hours.” left out

Sequence: QALDVGWLV
Normalized T1D prevalence [1]: 1.19 | % Presence in T1D samples [1]: 87.5%

Sequence: TLDIFLEIV
Mean % CD69+ T cells with cognate peptide (recombinant TCRs (rTCRs); TCR_17, source PBMC): 36.7%

Sequence: FSESILTYV
Normalized T1D prevalence [1]: 2.88 | % Presence in T1D samples [1]: 87.5%

Sequence: SVALWNNAV
Normalized T1D prevalence [1]: 1.13 | % Presence in T1D samples [1]: 87.5%

Sequence: TLMAVIGGL
Normalized T1D prevalence [1]: 3.63 | % Presence in T1D samples [1]: 100%

Sequence: VLQASSISA
Normalized T1D prevalence [1]: 3.19 | % Presence in T1D samples [1]: 100%

Sequence: GQWAGGAYA
Normalized T1D prevalence [1]: 1.81 | % Presence in T1D samples [1]: 87.5%

Sequence: FLSWALNSC
Normalized T1D prevalence [1]: 2.50 | % Presence in T1D samples [1]: 100%

Sequence: MVWESGCVV
Normalized T1D prevalence [1]: 16.313 | % Presence in T1D samples [1]: 100%

Sequence: YAPWELLSV
Normalized T1D prevalence [1]: 2.44 | % Presence in T1D samples [1]: 87.5% | Mean % CD69+ T cells with cognate peptide (recombinant TCRs (rTCRs); TCR_05, source PBMC): 38.4% | Mean % CD69+ T cells with cognate peptide (recombinant TCRs (rTCRs); TCR_13, source PBMC): 17.55%

Sequence: NLYTFVLKV
Normalized T1D prevalence [1]: 2.56 | % Presence in T1D samples [1]: 87.5%

Sequence: QLLFSLPKL
Mean % CD69+ T cells with cognate peptide (recombinant TCRs (rTCRs); TCR_16, source PBMC): 61.55%

Sequence: LLPPRVLPA
Mean % CD69+ T cells with cognate peptide (recombinant TCRs (rTCRs); TCR_15, source PBMC): 32.25%

Sequence: FLPYDHARI
Normalized T1D prevalence [1]: 2.94 | % Presence in T1D samples [1]: 87.5%

Sequence: KLSPSQHLA
Normalized T1D prevalence [1]: 1.06 | % Presence in T1D samples [1]: 87.5%

Sequence: LMSGILGLA
Normalized T1D prevalence [1]: 2.44 | % Presence in T1D samples [1]: 87.5%

Sequence: VLVNKVLLV
Normalized T1D prevalence [1]: 1.69 | % Presence in T1D samples [1]: 87.5% | Mean % CD69+ T cells with cognate peptide (recombinant TCRs (rTCRs); TCR_10, source PBMC): 29.45%

Sequence: ALAWAVWLA
Normalized T1D prevalence [1]: 1.94 | % Presence in T1D samples [1]: 87.5%

Sequence: TLVTLCHYA
Normalized T1D prevalence [1]: 1.94 | % Presence in T1D samples [1]: 87.5%

Sequence: ALMGQAAGV
Normalized T1D prevalence [1]: 1.50 | % Presence in T1D samples [1]: 87.5%

Sequence: KLNWDLHTA
Normalized T1D prevalence [1]: 3.63 | % Presence in T1D samples [1]: 87.5%

Sequence: LQFRGSMLA
Normalized T1D prevalence [1]: 2.00 | % Presence in T1D samples [1]: 100%

EC50 (islet-derived rTCR): 2.2 µM
Sequence: VIGDWLNLI
Normalized T1D prevalence [1]: 2.188 | % Presence in T1D samples [1]: 75% | Binding to islet-derived T cells from T1D patients [2]: identified as binding | Mean % CD69+ T cells with cognate peptide (recombinant TCRs (rTCRs); TCR_09, source PBMC): 26.15% | Mean % CD69+ T cells with cognate peptide (recombinant TCRs (rTCRs); TCR_18, source PBMC): 26.15% | Mean % CD69+ T cells with cognate peptide (recombinant TCRs (rTCRs); TCR_19, source islet): 28.8%

Sequence: FVAGLFVML
Normalized T1D prevalence [1]: 1.88 | % Presence in T1D samples [1]: 87.5%

Sequence: KMAKDWKTV
Normalized T1D prevalence [1]: 2.38 | % Presence in T1D samples [1]: 100% | Mean % CD69+ T cells with cognate peptide (recombinant TCRs (rTCRs); TCR_12, source PBMC): 18.65%

Sequence: TLSKPSPMPV
Normalized T1D prevalence [1]: 1.06 | % Presence in T1D samples [1]: 87.5%

Sequence: NLLYPVPLV
Normalized T1D prevalence [1]: 2.81 | % Presence in T1D samples [1]: 87.5% | Mean % CD69+ T cells with cognate peptide (recombinant TCRs (rTCRs); TCR_03, source PBMC): 49.75% | Mean % CD69+ T cells with cognate peptide (recombinant TCRs (rTCRs); TCR_08, source PBMC): 27.25% | Mean % CD69+ T cells with cognate peptide (recombinant TCRs (rTCRs); TCR_11, source PBMC): 21.65%

Sequence: TLSWALYEL
Normalized T1D prevalence [1]: 2.50 | % Presence in T1D samples [1]: 100% | Mean % CD69+ T cells with cognate peptide (recombinant TCRs (rTCRs); TCR_01, source PBMC): 59.8% | Mean % CD69+ T cells with cognate peptide (recombinant TCRs (rTCRs); TCR_02, source PBMC): 58% | Mean % CD69+ T cells with cognate peptide (recombinant TCRs (rTCRs); TCR_04, source PBMC): 48% | Mean % CD69+ T cells with cognate peptide (recombinant TCRs (rTCRs); TCR_06, source PBMC): 39% | Mean % CD69+ T cells with cognate peptide (recombinant TCRs (rTCRs); TCR_07, source PBMC): 33.55% | Mean % CD69+ T cells with cognate peptide (recombinant TCRs (rTCRs); TCR_14, source PBMC): 15.45%
